Legend:
Type in all cases: biochemical
PI3K γ = biological target: T1, PI3K γ (Homo sapiens, UniProt P48736); experiment: PI3-kinase HTRF inhibition assay, PI3K γ; details: in vitro
T1 construct: purchased Upstate
Procedure: (§1) Commercial kits or systems for assaying PI3-K activities are available. The commercially available kits or systems can be used to screen for inhibitors and/or agonists of PI3-Ks including but not limited to PI 3-Kinase α, β, δ, and γ. Anr exemplary system is PI 3-Kinase (human) HTRF™ Assay from Upstate. […] Briefly, the assay is a time resolved FRET assay that indirectly measures PIP3 product formed by the activity of a PI3-K. The kinase reaction is performed in a microtitre plate (e.g., a 384 well microtitre plate). The total reaction volume is approximately 20 ul per well. In the first step, each well receives 2 ul of test compound in 20% dimethylsulphoxide resulting in a 2% DMSO final concentration. Next, approximately 14.5 ul of a kinase/PIP2 mixture (diluted in 1× reaction buffer) is added per well for a final concentration of 0.25-0.3 ug/ml kinase and 10 μM PIP2. The plate is sealed and incubated for 15 minutes at room temperature. To start the reaction, 3.5 ul of ATP (diluted in 1× reaction buffer) is added per well for a final concentration of 10 μM ATP. The plate is sealed and incubated for 1 hour at room temperature. The reaction is stopped by adding 5ul of Stop Solution per well and then 5 ul of Detection Mix is added per well. The plate is sealed, incubated for 1 hour at room temperature, and then read on an appropriate plate reader. Data is analyzed and IC50s are generated using GraphPad Prism 5. For PI3K α, β, δ, and γ, the nM concentration of inhibitor to reach IC50 is provided Inhibition of PI3K a at lower concentrations than those for β, δ, and γ provides evidence of specificity within this group of kinases. Similar assays, and others known in the art, can be used to measure the percent inhibition of other kinases, including but not limited to PI3K class II kinases, phosphoinositide 4 kinases (PI4K), and phosphoinositide 5 kinases (PI5K).

PI3K α = biological target: T2, PI3K α (Homo sapiens, UniProt P42336); experiment: PI3-kinase HTRF inhibition assay, PI3K α; details: in vitro
T2 construct: purchased Upstate
Procedure: as §1

PI3K β = biological target: T3, PI3K β (Homo sapiens, UniProt P42338); experiment: PI3-kinase HTRF inhibition assay, PI3K β; details: in vitro
T3 construct: purchased Upstate
Procedure: as §1

mTORC = biological target: T4, mTORC (Homo sapiens, UniProt P42345); experiment: mTOR inhibition assay (in vitro IC50)
T4 construct: purchased Invitrogen
Procedure: The cross-activity or lack thereof of one or more compounds of the present invention against mTor can be measured according to any procedures known in the art or methods disclosed below. The compounds described herein can be tested against recombinant mTOR (Invitrogen) in an assay containing 50 mM HEPES, pH 7.5, 1 mM EGTA, 10 mM MgCl2, 2.5 mM, 0.01% Tween, 10 μM ATP (2.5 μCi of […]), and 3 μg/mL BSA. Rat recombinant PHAS-1/4EBP1 (Calbiochem; 2 mg/mL) is used as a substrate. Reactions are terminated by spotting onto nitrocellulose, which is washed with 1M NaCl/1% phosphoric acid (approximately 6 times, 5-10 minutes each). Sheets are dried and the transferred radioactivity quantitated by phosphorimaging.
Other kits or systems for assaying mTOR activity are commercially available. For instance, one can use Invitrogen's LanthaScreen™ Kinase assay to test the inhibitors of mTOR disclosed herein. This assay is a time resolved FRET platform that measures the phosphorylation of GFP labeled 4EBP1 by mTOR kinase. The kinase reaction is performed in a white 384 well microtitre plate. The total reaction volume is 20 ul per well and the reaction buffer composition is 50 mM HEPES pH7.5, 0.01% Polysorbate 20, 1 mM EGTA, 10 mM MnCl2, and 2 mM DTT. In the first step, each well receives 2 ul of test compound in 20% dimethylsulphoxide resulting in a 2% DMSO final concentration. Next, 8 ul of mTOR diluted in reaction buffer is added per well for a 60 ng/ml final concentration. To start the reaction, 10 ul of an ATP/GFP-4EBP1 mixture (diluted in reaction buffer) is added per well for a final concentration of 10 μM ATP and 0.5 μM GFP-4EBP1. The plate is sealed and incubated for 1 hour at room temperature. The reaction is stopped by adding 10 ul per well of a Tb-anti-pT46 4EBP1 antibody/EDTA mixture (diluted in TR-FRET buffer) for a final concentration of 1.3 nM antibody and 6.7 mM EDTA. The plate is sealed, incubated for 1 hour at room temperature, and then read on a plate reader set up for LanthaScreen™ TR-FRET. Data is analyzed and IC50s are generated using GraphPad Prism 5.

PI3K δ = biological target: T5, PI3K δ (Homo sapiens, UniProt O00329); experiment: PI3-kinase HTRF inhibition assay, PI3K δ; details: in vitro
T5 construct: purchased Upstate
Procedure: as §1

T5 sequence (O00329 whole entry): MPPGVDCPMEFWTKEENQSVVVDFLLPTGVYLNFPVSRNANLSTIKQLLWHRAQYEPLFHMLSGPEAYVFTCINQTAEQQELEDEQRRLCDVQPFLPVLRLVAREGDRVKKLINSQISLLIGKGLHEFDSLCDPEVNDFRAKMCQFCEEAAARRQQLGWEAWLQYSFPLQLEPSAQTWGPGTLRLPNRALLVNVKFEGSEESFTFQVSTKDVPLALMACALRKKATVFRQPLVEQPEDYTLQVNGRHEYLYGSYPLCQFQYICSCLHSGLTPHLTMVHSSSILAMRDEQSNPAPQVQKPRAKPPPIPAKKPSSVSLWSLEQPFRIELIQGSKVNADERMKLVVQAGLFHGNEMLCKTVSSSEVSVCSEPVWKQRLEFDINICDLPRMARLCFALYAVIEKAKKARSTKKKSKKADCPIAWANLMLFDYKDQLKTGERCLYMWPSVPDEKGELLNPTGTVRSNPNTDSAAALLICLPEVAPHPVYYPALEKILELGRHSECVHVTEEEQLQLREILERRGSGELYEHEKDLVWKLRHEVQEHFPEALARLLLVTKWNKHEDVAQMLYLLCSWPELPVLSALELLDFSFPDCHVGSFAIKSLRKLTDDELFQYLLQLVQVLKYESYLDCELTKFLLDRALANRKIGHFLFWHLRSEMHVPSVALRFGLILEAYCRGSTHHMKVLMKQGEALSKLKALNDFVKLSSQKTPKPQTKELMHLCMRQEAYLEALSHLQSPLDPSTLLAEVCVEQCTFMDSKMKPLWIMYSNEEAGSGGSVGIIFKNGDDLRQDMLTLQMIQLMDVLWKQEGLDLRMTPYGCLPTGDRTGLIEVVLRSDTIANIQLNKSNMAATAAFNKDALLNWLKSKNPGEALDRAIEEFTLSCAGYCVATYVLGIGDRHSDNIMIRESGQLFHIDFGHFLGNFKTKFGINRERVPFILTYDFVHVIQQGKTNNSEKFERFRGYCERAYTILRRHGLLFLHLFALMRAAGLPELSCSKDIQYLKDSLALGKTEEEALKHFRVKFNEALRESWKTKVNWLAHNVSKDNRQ
T5 sequence (P27986 whole entry partner): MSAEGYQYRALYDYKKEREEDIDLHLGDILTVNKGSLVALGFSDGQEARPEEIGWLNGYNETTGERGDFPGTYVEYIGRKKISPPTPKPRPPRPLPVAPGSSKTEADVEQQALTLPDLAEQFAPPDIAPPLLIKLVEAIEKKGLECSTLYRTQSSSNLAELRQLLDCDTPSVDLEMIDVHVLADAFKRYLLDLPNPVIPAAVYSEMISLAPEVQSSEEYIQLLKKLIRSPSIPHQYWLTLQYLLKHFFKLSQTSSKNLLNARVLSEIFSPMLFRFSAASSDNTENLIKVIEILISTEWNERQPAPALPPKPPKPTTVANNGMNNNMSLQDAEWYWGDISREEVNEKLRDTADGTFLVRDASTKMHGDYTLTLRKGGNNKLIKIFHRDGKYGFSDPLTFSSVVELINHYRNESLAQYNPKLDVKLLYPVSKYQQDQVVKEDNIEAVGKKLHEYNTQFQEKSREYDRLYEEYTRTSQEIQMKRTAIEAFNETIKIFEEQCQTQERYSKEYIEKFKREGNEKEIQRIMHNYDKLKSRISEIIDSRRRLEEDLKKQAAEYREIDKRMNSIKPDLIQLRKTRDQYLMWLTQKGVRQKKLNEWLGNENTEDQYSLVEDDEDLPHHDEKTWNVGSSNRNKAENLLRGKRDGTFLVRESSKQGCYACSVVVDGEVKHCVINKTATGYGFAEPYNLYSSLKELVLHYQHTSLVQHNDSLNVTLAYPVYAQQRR
T4 sequence (P42345 1360-2549 limits assumed): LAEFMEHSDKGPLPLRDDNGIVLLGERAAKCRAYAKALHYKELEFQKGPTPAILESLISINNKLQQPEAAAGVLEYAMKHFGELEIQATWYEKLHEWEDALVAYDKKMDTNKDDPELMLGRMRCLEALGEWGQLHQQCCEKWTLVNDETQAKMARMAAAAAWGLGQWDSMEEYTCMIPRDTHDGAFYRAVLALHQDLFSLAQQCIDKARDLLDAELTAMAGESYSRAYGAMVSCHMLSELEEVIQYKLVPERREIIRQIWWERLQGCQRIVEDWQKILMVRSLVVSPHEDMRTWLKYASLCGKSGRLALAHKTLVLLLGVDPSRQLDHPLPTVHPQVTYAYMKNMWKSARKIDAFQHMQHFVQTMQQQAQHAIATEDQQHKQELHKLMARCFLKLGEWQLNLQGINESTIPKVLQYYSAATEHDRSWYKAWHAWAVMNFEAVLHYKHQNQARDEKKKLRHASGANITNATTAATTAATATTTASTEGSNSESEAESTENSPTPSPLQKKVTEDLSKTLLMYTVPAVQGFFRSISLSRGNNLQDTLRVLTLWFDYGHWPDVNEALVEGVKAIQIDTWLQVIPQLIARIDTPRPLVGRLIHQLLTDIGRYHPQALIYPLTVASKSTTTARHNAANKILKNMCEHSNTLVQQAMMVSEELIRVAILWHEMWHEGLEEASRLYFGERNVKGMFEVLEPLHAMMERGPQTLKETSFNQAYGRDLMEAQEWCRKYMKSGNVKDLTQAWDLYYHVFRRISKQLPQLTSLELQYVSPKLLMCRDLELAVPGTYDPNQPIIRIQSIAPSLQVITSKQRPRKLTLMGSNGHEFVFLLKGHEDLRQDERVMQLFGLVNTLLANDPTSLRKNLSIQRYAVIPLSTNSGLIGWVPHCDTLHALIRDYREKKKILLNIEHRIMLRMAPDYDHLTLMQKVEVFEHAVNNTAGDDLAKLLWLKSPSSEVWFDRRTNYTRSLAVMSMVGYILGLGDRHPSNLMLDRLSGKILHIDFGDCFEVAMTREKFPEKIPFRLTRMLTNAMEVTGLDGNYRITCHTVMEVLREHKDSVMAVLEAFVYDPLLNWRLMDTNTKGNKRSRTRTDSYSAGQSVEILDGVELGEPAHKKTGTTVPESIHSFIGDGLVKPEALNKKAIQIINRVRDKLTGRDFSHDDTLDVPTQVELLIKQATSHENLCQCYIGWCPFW
T1 sequence (P48736 whole entry): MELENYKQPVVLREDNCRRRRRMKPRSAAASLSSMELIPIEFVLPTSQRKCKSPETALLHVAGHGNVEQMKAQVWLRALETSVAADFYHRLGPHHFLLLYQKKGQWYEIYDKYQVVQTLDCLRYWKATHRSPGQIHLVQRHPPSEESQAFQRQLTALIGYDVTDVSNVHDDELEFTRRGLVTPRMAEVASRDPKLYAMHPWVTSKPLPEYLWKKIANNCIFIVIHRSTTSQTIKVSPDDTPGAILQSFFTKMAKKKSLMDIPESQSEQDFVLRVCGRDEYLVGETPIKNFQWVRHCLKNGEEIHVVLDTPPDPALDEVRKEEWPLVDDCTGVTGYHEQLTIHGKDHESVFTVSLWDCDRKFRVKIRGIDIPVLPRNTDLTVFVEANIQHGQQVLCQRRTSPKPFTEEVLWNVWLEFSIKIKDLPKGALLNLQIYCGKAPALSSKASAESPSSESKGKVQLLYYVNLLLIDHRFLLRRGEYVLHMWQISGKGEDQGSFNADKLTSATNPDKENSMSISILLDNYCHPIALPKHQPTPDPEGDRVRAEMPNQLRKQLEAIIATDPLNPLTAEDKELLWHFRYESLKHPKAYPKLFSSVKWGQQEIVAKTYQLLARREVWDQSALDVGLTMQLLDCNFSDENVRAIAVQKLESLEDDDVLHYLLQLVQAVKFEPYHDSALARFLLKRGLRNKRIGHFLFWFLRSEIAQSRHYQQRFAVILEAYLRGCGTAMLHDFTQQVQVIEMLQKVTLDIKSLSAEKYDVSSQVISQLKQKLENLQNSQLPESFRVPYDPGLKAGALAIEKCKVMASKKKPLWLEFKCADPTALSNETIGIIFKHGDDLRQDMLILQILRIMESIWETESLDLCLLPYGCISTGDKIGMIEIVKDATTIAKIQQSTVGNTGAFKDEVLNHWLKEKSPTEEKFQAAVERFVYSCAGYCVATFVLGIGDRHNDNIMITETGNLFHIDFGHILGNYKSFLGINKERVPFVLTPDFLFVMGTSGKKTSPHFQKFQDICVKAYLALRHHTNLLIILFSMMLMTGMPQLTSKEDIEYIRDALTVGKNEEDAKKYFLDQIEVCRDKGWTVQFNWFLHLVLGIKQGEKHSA

SMILES | IC50 (PI3K γ) [µM] | IC50 (PI3K α) [µM] | IC50 (PI3K β) [µM] | IC50 (mTORC) [µM] | IC50 (PI3K δ) [µM]
O=C(c1cnc2ccc(-c3ccnc4[nH]ncc34)cn12)N1CCOCC1 [Compound 3] | > 10 | < 10 | > 10 | > 10 | > 10
CN1CC2CN(C(=O)c3cnc4ccc(-c5ccc6oc(N)nc6c5)cn34)CC2C1 (stereo not shown) [Compound 4] | < 1 | < 0.1 | < 1 | > 10 | < 1
Nc1nc2cc(-c3cnc4ccc(C(=O)N5CCOCC5)cn34)ccc2o1 [Compound 12] | – | > 10 | > 10 | – | > 10
Nc1nc2cc(-c3ccc4ncc(C(=O)NCCOCCO)n4c3)ccc2o1 [Compound 21] | < 1 | < 1 | < 10 | – | < 10
CN1CCN(CCc2nnc3ccc(-c4ccc5nc(N)oc5c4)cn23)CC1 [Compound 16] | > 10 | > 10 | > 10 | – | > 10
Nc1nc2cc(-c3ccc4ncc(C(=O)NCCOCC(=O)O)n4c3)ccc2o1 [Compound 22] | < 0.1 | < 0.1 | < 1 | – | –
CN1CCN(Cc2nnc3ccc(-c4ccc5nc(N)oc5c4)cn23)CC1 [Compound 18] | > 10 | > 10 | > 10 | – | > 10
[2H]c1c(-c2ccc3ncc(C(=O)N4CCOCC4)n3c2)c([2H])c2nc(N)oc2c1[2H] [Compound 2] | < 0.1 | < 0.1 | < 10 | – | > 10
Nc1nc2ccc(-c3ccc4ncc(C(=O)N5CCOCC5)n4c3)cc2[nH]1 [Compound 15] | > 10 | < 1 | > 10 | – | > 10
Cc1cc(-c2ccc3nc(N)oc3c2)cn2c(CCN3CCN(C)CC3)nnc12 [Compound 19] | > 10 | > 10 | > 10 | – | > 10
Cc1ncc(-c2ccc3ncc(C(=O)N4CCOCC4)n3c2)c2cc[nH]c12 [Compound 7] | > 10 | < 10 | > 10 | – | > 10
O=C(c1cnc2ccc(-c3cnc4cc[nH]c4c3)cn12)N1CCOCC1 [Compound 5] | > 10 | < 10 | > 10 | – | > 10
Cc1cc(-c2ccc3nc(N)oc3c2)cn2c(N3CCN(C)CC3)nnc12 [Compound 17] | > 10 | > 10 | > 10 | – | > 10
O=C(c1cnc2ccc(-c3cnc4cn[nH]c4c3)cn12)N1CCOCC1 [Compound 6] | > 10 | – | > 10 | – | > 10
CN1CCN(c2nnc3ccc(-c4ccc5nc(N)oc5c4)cn23)CC1 [Compound 13] | > 10 | > 10 | > 10 | – | > 10
Cc1cc(-c2ccc3nc(N)oc3c2)cn2c(CN3CCN(C)CC3)nnc12 [Compound 20] | > 10 | > 10 | > 10 | – | > 10
Cc1cc(-c2ccc3nc(N)oc3c2)cn2c(-c3ccncc3)nnc12 [Compound 14] | > 10 | > 10 | < 10 | – | > 10
Cc1ncc(-c2ccc3ncc(C(=O)N4C5CCC4COC5)n3c2)c2cn[nH]c12 [Compound 9] | > 10 | < 0.1 | > 10 | > 10 | < 10
Cc1ncc(-c2ccc3ncc(C(=O)N4CCOCC4)n3c2)c2cn[nH]c12 [Compound 1] | > 10 | < 0.1 | > 10 | – | < 10
Nc1nc2cc(-c3cnc4ccc(C(=O)N5C6CCC5COC6)cn34)ccc2o1 [Compound 11] | > 10 | > 10 | > 10 | – | > 10
O=C(c1cnc2ccc(-c3cncc4c3cnn4CCO)cn12)N1CCOCC1 [Compound 10] | > 10 | > 10 | > 10 | – | > 10
Cn1ncc2c(-c3ccc4ncc(C(=O)N5CCOCC5)n4c3)cncc21 [Compound 8] | < 10 | < 10 | > 10 | – | > 10

Reference: US9127000B2, “Heterocyclic compounds and uses thereof” (Intellikine, LLC., priority 2011, dated 2015)
